Assay: mn = molality of the nth substance listed, in mol/kg
Conditions: 101.3 kPa, Liquid, Vibrating tube method

Nc1cc[nH]c(=O)n1 [4-amino-2-hydroxypyrimidine] + O
mass density [kg/m3]
Conditions	288.15 K	298.15 K	308.15 K	318.15 K
m1 = 0.00616	999.374	997.282	994.295	990.472
m1 = 0.01095	999.56	997.461	994.473	990.648
m1 = 0.01278	–	997.529	–	–
m1 = 0.01633	999.767	997.66	994.67	990.845
m1 = 0.01855	–	997.743	–	–
m1 = 0.01892	–	997.756	–	–
m1 = 0.01961	999.894	997.779	994.791	990.964
m1 = 0.02682	1000.17	998.042	995.052	991.228
m1 = 0.02766	–	998.073	–	–
m1 = 0.02813	–	998.09	–	–
m1 = 0.03302	1000.4	998.264	995.271	991.452
m1 = 0.0353	–	998.345	–	–

O=c1cc[nH]c(=O)[nH]1 [2,4(1H,3H)-pyrimidinedione] + O
mass density [kg/m3]
Conditions	288.15 K	298.15 K	308.15 K	318.15 K
m1 = 0.00553	999.354	997.267	994.275	990.452
m1 = 0.00878	–	997.396	–	–
m1 = 0.01162	999.599	997.507	994.508	990.68
m1 = 0.01202	–	997.522	–	–
m1 = 0.01509	999.736	997.643	994.639	990.808
m1 = 0.01724	–	997.727	–	–
m1 = 0.01985	999.924	997.828	994.818	990.984
m1 = 0.02348	–	997.97	–	–
m1 = 0.02387	–	997.985	–	–
m1 = 0.02487	–	998.023	–	–
m1 = 0.02578	1000.15	998.059	995.038	991.203
m1 = 0.03026	1000.33	998.232	995.205	991.367

Cc1c[nH]c(=O)[nH]c1=O [thymine] + O
mass density [kg/m3]
Conditions	m1 = 0.00771	m1 = 0.01299	m1 = 0.01771	m1 = 0.02319	m1 = 0.02665	m1 = 0.03315
288.15 K	999.423	999.622	999.797	1000	1000.13	1000.37
298.15 K	997.334	997.53	997.704	997.906	998.033	998.27
308.15 K	994.344	994.535	994.705	994.901	995.023	995.252
318.15 K	990.518	990.703	990.867	991.055	991.172	991.393

Cl.N=C(N)N [guanidine hydrochloride] + O
mass density [kg/m3]
Conditions	m1 = 0.1	m1 = 0.25	m1 = 0.5	m1 = 0.75	m1 = 1
288.15 K	1001.93	1006.02	1012.56	1018.77	1024.63
298.15 K	999.788	1003.75	1010.1	1016.1	1021.79
308.15 K	996.735	1000.63	1006.86	1012.74	1018.36
318.15 K	992.885	996.736	1002.87	1008.68	1014.2

Cc1cn([C@H]2CC(O)[C@@H](CO)O2)c(=O)[nH]c1=O (stereo partly drawn) [thymidine] + O
mass density [kg/m3]
Conditions	m1 = 0.00963	m1 = 0.01114	m1 = 0.01478	m1 = 0.02291	m1 = 0.02594	m1 = 0.0288
288.15 K	999.851	999.964	1000.24	1000.84	1001.06	1001.27
298.15 K	997.759	997.871	998.139	998.733	998.954	999.162
308.15 K	994.768	994.878	995.142	995.73	995.947	996.152
318.15 K	990.937	991.046	991.306	991.881	992.094	992.294

From the NIST ThermoML archive (doi:10.1016/j.jct.2014.10.015)
